# Reference: patent publication US6380244B2, “Nutritional and therapeutic uses of 3-hydroxyalkanoate oligomers” (Metabolix, Inc., priority 1998, dated 2002)
# Key:
# [1] = Single oral bolus of triolide in a fasted dog, blood ketone bodies and glucose (Example 2); format: in vivo, mongrel dog
# Procedure: A mongrel dog (21 kg) was fasted overnight and given an oral bolus of triolide (R,R,R)-4,8,12-trimethyl-1,5,9-trioxadodeca-2,6,10-trione, 10 g) in gelatin. This amount of triolide is equivalent to 5% of the daily caloric requirement. Blood was sampled at 0, 15, 30, 45, and 60 minutes and every half hour thereafter for a total of six hours.
# The blood samples were analyzed for glucose via enzymatic assay, and for acetoacetate and 3-hydroxybutyrate via GC-mass spectrometry (GC-MS) assay. As shown by FIG. 1, within 90 minutes, the blood concentrations of 3-hydroxybutyrate and acetoacetate reached 0.3 and 0.05 mM, and the total ketone bodies in the blood were 0.36 mM. After the fourth hour, the total ketone body concentration remained elevated at 0.24 mM. Glucose concentration in the blood dropped from 6.5 mM to 5 mM during the experiment.
# [2] = Repeated feeding of meat plus triolide to a fasted dog, blood ketone bodies, glucose, tolerability (Example 3); format: in vivo, mongrel dog
# Procedure: A mongrel dog (25.5 kg) was fasted overnight and fed a mixture of meat (111 g) and triolide ((R,R,R)-4,8,12-trimethyl-1,5,9-trioxadodeca-2,6,10-trione, 23.5 g). This amount of triolide is equivalent to 10% of the daily caloric requirement. Identical amounts of meat and triolide were given at 0, 120, 360 and 540 minutes. Blood was sampled at regular intervals for 12 hours.
# The blood samples were analyzed for acetoacetate and 3-hydroxybutyrate. Within 30 minutes, the concentrations of 3-hydroxybutyrate and acetoacetate reached 0.85 and 0.15 mM, respectively. The total ketone bodies in the blood were 1.0 mM. After the third feeding of triolide, total ketone body concentration remained elevated and steady at about 0.6 mM. Glucose concentration in the blood remained within the normal range of 3.1 to 5.9 mM. […] By the next morning, the ketone body concentration in the blood had returned to the normal value of 0.02 mM.
# [3] = four feedings of 23.5 g triolide, throughout the experiment
# [4] = meat + triolide 23.5 g, within 30 minutes
smiles,measurement,setting,value
"C[C@@H]1CC(=O)O[C@H](C)CC(=O)O[C@H](C)CC(=O)O1 [triolide, (R,R,R)-4,8,12-Trimethyl-1,5,9-Trioxadodeca-2,6,10-Trione]",blood concentration of 3-hydroxybutyrate,"[1]; oral bolus 10 g triolide in gelatin (5% of daily caloric requirement), within 90 minutes, GC-MS",300 µM
same,total ketone bodies in the blood,"[1]; oral bolus 10 g triolide in gelatin, within 90 minutes",0.36 mM
same,blood concentration of acetoacetate,"[1]; oral bolus 10 g triolide in gelatin, within 90 minutes, GC-MS",50 µM
same,total ketone body concentration,"[1]; oral bolus 10 g triolide, after the fourth hour, remained elevated",0.24 mM
same,total ketone body concentration,"[2]; after the third feeding of triolide, elevated and steady",about 0.6 mM
same,ketone body concentration in the blood,"[2]; by the next morning, returned to the normal value",0.02 mM
same,other clinical chemistry profiles,[2]; [3],remained normal
same,"signs of distress, unusual behavior, abnormal bodily functions (diarrhea, nausea, vomiting, frequent urination)",[2]; [3],no signs of distress
same,blood concentration of 3-hydroxybutyrate,"[2]; meat 111 g + triolide 23.5 g (10% of daily caloric requirement) at 0, 120, 360, 540 min, within 30 minutes",850 µM
same,blood concentration of acetoacetate,[2]; [4],150 µM
same,total ketone bodies in the blood,[2]; [4],1.0 mM
